From patent publication US20220241249A1, “PHARMACEUTICAL COMPOSITION AND KIT CONTAINING NOVEL PENAM DERIVATIVE OR SALT THEREOF AND ONE OR MORE COMPOUNDS SELECTED FROM beta-LACTAMASE INHIBITORY COMPOUND AND ANTIBACTERIAL COMPOUND OR SALTS THEREOF” (priority 2019, published 2022)
In brackets after ≈: the same amount, converted by molar mass. Read-outs that look alike come from different tables or passages of the source.

What was measured:
Test in all cases: Antibacterial activity evaluation test, MIC by broth microdilution (CLSI)
Type in all cases: cell-based
[1] = system: KPC-2-containing Klebsiella pneumoniae strain (Y-995)
Experimental: (§1) The minimum inhibitory concentration (MIC) was measured according to the Clinical and Laboratory Standards Institute (CLSI) standard method by using the following broth microdilution method.
(§2) As bacteria, a Pseudomonas aeruginosa strain ATCC27853, an AmpC-derepressed Pseudomonas aeruginosa mutant strain (S-3028), an IMP-1-containing Pseudomonas aeruginosa strain (S-2838), a VIM-2-containing Pseudomonas aeruginosa strain (S-3779), a GES-19 and GES-20-containing Pseudomonas aeruginosa strain (S-3759), a CTX-M-15-containing Escherichia coli strain (TK-1747), a KPC-2-containing Klebsiella pneumoniae strain (Y-995), an OXA-48-containing Klebsiella pneumoniae strain (Y-1062), and an NDM-1-containing Klebsiella pneumoniae strain (Y-1007) were used. The test bacterial cells that had been cultured overnight on a Mueller Hinton agar medium were scraped off, suspended at a density equivalent to 0.5 McFarland standard, and diluted 10-fold, thereby obtaining an inoculum. A cation-adjusted Mueller Hinton medium containing a test compound was inoculated with 0.005 mL of the inoculum, and the cells were cultured at 35° C. for 16 to 20 hours. The minimum drug concentration at which the growth of bacteria was not visually observed was defined as MIC (μg/mL).
(§3) An antibacterial activity evaluation test was performed in the same manner as in Test Example 1.

[2] = system: CTX-M-15-containing Escherichia coli strain (TK-1747)
Experimental: as §1, §2, §3

[3] = system: GES-19 and GES-20-containing Pseudomonas aeruginosa strain (S-3759)
Experimental: as §1, §2, §3

[4] = system: Pseudomonas aeruginosa strain ATCC27853
Experimental: as §1, §2, §3

[5] = system: VIM-2-containing Pseudomonas aeruginosa strain (S-3779)
Experimental: as §1, §2, §3

[6] = system: IMP-1-containing Pseudomonas aeruginosa strain (S-2838)
Experimental: as §1, §2, §3

[7] = system: AmpC-derepressed Pseudomonas aeruginosa mutant strain (S-3028)
Experimental: as §1, §2, §3

[8] = system: OXA-48-containing Klebsiella pneumoniae strain (Y-1062)
Experimental: as §1, §2, §3

[9] = system: NDM-1-containing Klebsiella pneumoniae strain (Y-1007)
Experimental: as §1, §2, §3

[10] = Pseudomonas aeruginosa, ATCC27853
[11] = ATCC27853, Pseudomonas aeruginosa ATCC 27853, 35° C., 16 to 20 hours, read-out: MIC

SMILES | MIC ([1]; Klebsiella pneumoniae) | MIC ([2]; Escherichia coli) | MIC ([3]; Pseudomonas aeruginosa) | MIC [4, 10] | MIC ([5]; Pseudomonas aeruginosa) | MIC ([6]; Pseudomonas aeruginosa) | MIC ([7]; Pseudomonas aeruginosa) | MIC ([8]; Klebsiella pneumoniae) | MIC ([9]; Klebsiella pneumoniae) | MIC [4, 11] | MIC ([1]; Klebsiella pneumoniae Y-995, 35° C., 16 to 20 hours) | MIC ([2]; Escherichia coli TK-1747, 35° C., 16 to 20 hours) | MIC ([3]; Pseudomonas aeruginosa S-3759, 35° C., 16 to 20 hours) | MIC ([4]; Pseudomonas aeruginosa ATCC 27853, 35° C., 16 to 20 hours) | MIC ([5]; Pseudomonas aeruginosa S-3779, 35° C., 16 to 20 hours) | MIC ([6]; Pseudomonas aeruginosa S-2838, 35° C., 16 to 20 hours) | MIC ([7]; Pseudomonas aeruginosa S-3028, 35° C., 16 to 20 hours) | MIC ([8]; Klebsiella pneumoniae Y-1062, 35° C., 16 to 20 hours) | MIC ([9]; Klebsiella pneumoniae Y-1007, 35° C., 16 to 20 hours)
C[C@H]1CN(/N=C/CNC(=O)C(=O)c2ccc(O)c(O)c2Cl)C(=O)N1[C@]1(C(=O)O)CN2C(=O)C(NC(=O)/C(=N\OC(C)(C)C(=O)O)c3csc(N)n3)[C@H]2S1 (stereo partly drawn) [Example 47] | 0.5 µg/mL (≈ 0.628 µM) | < 0.06 µg/mL | 1 µg/mL (≈ 1.26 µM) | 0.5 µg/mL (≈ 0.628 µM) | 1 µg/mL (≈ 1.26 µM) | 4 µg/mL (≈ 5.02 µM) | 0.12 µg/mL (≈ 0.151 µM) | 0.25 µg/mL (≈ 0.314 µM) | < 0.06 µg/mL | – | – | – | – | – | – | – | – | – | –
CC(C)(O/N=C(\C(=O)N[C@@H]1C(=O)N2C[C@@](C(=O)O)(N3CCN(NC(=O)CCNC(=O)c4ccc(O)c(O)c4Cl)C3=O)S[C@H]12)c1csc(N)n1)C(=O)O [Example 28, (3R,5R,6R)-6-((Z)-2-(2-aminothiazol-4-yl)-2-(((2-carboxypropan-2-yl)oxy)imino)acetamido)-3-(3-(3-(2-chloro-3,4-dihydroxybenzamido)propanamido)-2-oxoimidazolidin-1-yl)-7-oxo-4-thia-1-azabicyclo[3.2.0]heptane-3-carboxylic acid] | 1 µg/mL (≈ 1.28 µM) | 2 µg/mL (≈ 2.55 µM) | 2 µg/mL (≈ 2.55 µM) | 0.5 µg/mL (≈ 0.638 µM) | 0.5 µg/mL (≈ 0.638 µM) | 0.25 µg/mL (≈ 0.319 µM) | 0.25 µg/mL (≈ 0.319 µM) | 0.25 µg/mL (≈ 0.319 µM) | < 0.06 µg/mL | – | – | – | – | – | – | – | – | – | –
CC(C)(O/N=C(\C(=O)NC1C(=O)N2C[C@@](C(=O)O)(N3CCN(NC(=O)C(=O)NNC(=O)C(=O)c4ccc(O)c(O)c4Cl)C3=O)S[C@H]12)c1nc(N)sc1Cl)C(=O)O (stereo partly drawn) [Example 136, (3R,5R,6R)-6-((Z)-2-(2-amino-5-chlorothia-zol-4-yl)-2-(((2-carboxy-propan-2-yl)oxy)imino)-acetamido)-3-(3-(2-(2-(2-(2-chloro-3,4-dihydroxyphenyl)-2-oxoacetyl)hydrizinyl)-2-oxoacetamido)-2-oxoimidazolidin-1-yl)-7-oxo-4-thia-1-aza-bicyclo[3.2.0]heptane-3-carboxylic acid] | 0.25 µg/mL (≈ 0.29 µM) | < 0.06 µg/mL | 0.5 µg/mL (≈ 0.58 µM) | 0.5 µg/mL (≈ 0.58 µM) | 0.5 µg/mL (≈ 0.58 µM) | 0.12 µg/mL (≈ 0.139 µM) | 0.12 µg/mL (≈ 0.139 µM) | 0.12 µg/mL (≈ 0.139 µM) | 0.12 µg/mL (≈ 0.139 µM) | – | – | – | – | – | – | – | – | – | –
CC(C)(O/N=C(\C(=O)N[C@@H]1C(=O)N2C[C@@](C(=O)O)(N3CCN(NC(=O)c4ccc(O)c(O)c4Cl)C3=O)S[C@H]12)c1csc(N)n1)C(=O)O [Example 2, (3R,5R,6R)-6-((Z)-2-(2-aminothiazol-4-yl)-2-(((2-carboxypropan-2-yl)oxy)imino)acetamido)-3-(3-(2-chloro-3,4-dihydroxybenzamido)-2-oxoimidazolidin-1-yl)-7-oxo-4-thia-1-azabicyclo[3.2.0]heptane-3-carboxylic acid] | 0.12 µg/mL (≈ 0.168 µM) | 0.25 µg/mL (≈ 0.351 µM) | 4 µg/mL (≈ 5.61 µM) | 1 µg/mL (≈ 1.4 µM) | 0.25 µg/mL (≈ 0.351 µM) | 0.5 µg/mL (≈ 0.701 µM) | 1 µg/mL (≈ 1.4 µM) | 2 µg/mL (≈ 2.8 µM) | < 0.06 µg/mL | – | – | – | – | – | – | – | – | – | –
CC(C)(O/N=C(\C(=O)N[C@@H]1C(=O)N2C[C@@](C(=O)O)(N3CCN(NC(=O)C(=O)NCCNC(=O)c4ccc(O)c(O)c4Cl)C3=O)S[C@H]12)c1csc(N)n1)C(=O)O [Example 68, (3R,5R,6R)-6-((Z)-2-(2-aminothiazol-4-yl)-2-(((2-carboxypropan-2-yl)oxy)imino)acetamido)-3-(3-(2-((2-(2-chloro-3,4-dihydroxybenzamido)ethyl)amino)-2-oxoacetamido)-2-oxoimidazolidin-1-yl)-7-oxo-4-thia-1-azabicyclo[3.2.0]heptane-3-carboxylic acid] | 0.5 µg/mL (≈ 0.604 µM) | 1 µg/mL (≈ 1.21 µM) | 4 µg/mL (≈ 4.84 µM) | – | 2 µg/mL (≈ 2.42 µM) | 1 µg/mL (≈ 1.21 µM) | 0.25 µg/mL (≈ 0.302 µM) | 1 µg/mL (≈ 1.21 µM) | < 0.06 µg/mL | 1 µg/mL (≈ 1.21 µM) | – | – | – | – | – | – | – | – | –
CC(C)(O/N=C(\C(=O)NC1C(=O)N2C[C@@](C(=O)O)(N3CCN(NC(=O)C(=O)NCCNC(=O)C(=O)c4ccc(O)c(O)c4Cl)C3=O)S[C@H]12)c1csc(N)n1)C(=O)O (stereo partly drawn) [Example 121, (3R,5R,6R)-6-((Z)-2-(2-aminothiazol-4-yl)-2-(((2-carboxypropan-2-yl)oxy)imino)aceta-mido)-3-(3-(2-((2-(2-(2-chloro-3,4-dihydroxy-phenyl)-2-oxoaceta-mido)ethyl)amino)-2-oxoacetamido)-2-oxo-imidazolidin-1-yl)-7-oxo-4-thia-1-azabicyclo-[3.2.0]heptane-3-carbox-ylic acid] | 0.25 µg/mL (≈ 0.292 µM) | < 0.06 µg/mL | 2 µg/mL (≈ 2.34 µM) | 2 µg/mL (≈ 2.34 µM) | 1 µg/mL (≈ 1.17 µM) | 4 µg/mL (≈ 4.68 µM) | 2 µg/mL (≈ 2.34 µM) | 0.5 µg/mL (≈ 0.585 µM) | 0.12 µg/mL (≈ 0.14 µM) | – | – | – | – | – | – | – | – | – | –
CC[C@H](O/N=C(\C(=O)N[C@@H]1C(=O)N2C[C@@](C(=O)O)(N3CCN(NC(=O)C(=O)c4ccc(O)c(O)c4Cl)C3=O)S[C@H]12)c1csc(N)n1)C(=O)O [Example 105, (3R,5R,6R)-6-((Z)-2-(2-aminothiazol-4-yl)-2-(((S)-1-carboxypropoxy)imino)acetamido)-3-(3-(2-(2-chloro-3,4-dihydroxyphenyl)-2-oxoacetamido)-2-oxoimidazolidin-1-yl)-7-oxo-4-thia-1-azabicyclo[3.2.0]heptane-3-carboxylic acid] | 0.12 µg/mL (≈ 0.162 µM) | 0.5 µg/mL (≈ 0.675 µM) | 0.5 µg/mL (≈ 0.675 µM) | 0.25 µg/mL (≈ 0.337 µM) | 0.25 µg/mL (≈ 0.337 µM) | 0.25 µg/mL (≈ 0.337 µM) | < 0.06 µg/mL | 0.5 µg/mL (≈ 0.675 µM) | < 0.06 µg/mL | – | – | – | – | – | – | – | – | – | –
CC(C)(O/N=C(\C(=O)N[C@@H]1C(=O)N2C[C@@](C(=O)O)(N3CCN(NC(=O)C(=O)N(O)CCNC(=O)c4ccc(O)c(O)c4Cl)C3=O)S[C@H]12)c1csc(N)n1)C(=O)O [Example 104, (3R,5R,6R)-6-((Z)-2-(2-aminothiazol-4-yl)-2-(((2-carboxypropan-2-yl)oxy)imino)acetamido)-3-(3-(2-((2-(2-chloro-3,4-dihydroxybenzamido)ethyl)(hydroxy)amino)-2-oxoacetamido)-2-oxoimidazolidin-1-yl)-7-oxo-4-thia-1-azabicyclo[3.2.0]heptane-3-carboxylic acid] | 2 µg/mL (≈ 2.37 µM) | 1 µg/mL (≈ 1.19 µM) | 4 µg/mL (≈ 4.74 µM) | – | 1 µg/mL (≈ 1.19 µM) | 0.5 µg/mL (≈ 0.593 µM) | 2 µg/mL (≈ 2.37 µM) | 2 µg/mL (≈ 2.37 µM) | < 0.06 µg/mL | 2 µg/mL (≈ 2.37 µM) | – | – | – | – | – | – | – | – | –
C[C@H]1CN(/N=C/CNC(=O)c2ccc(O)c(O)c2Cl)C(=O)N1[C@]1(C(=O)O)CN2C(=O)C(NC(=O)/C(=N\OC(C)(C)C(=O)O)c3csc(N)n3)[C@H]2S1 (stereo partly drawn) [Example 45] | 0.25 µg/mL (≈ 0.325 µM) | 0.12 µg/mL (≈ 0.156 µM) | 2 µg/mL (≈ 2.6 µM) | 1 µg/mL (≈ 1.3 µM) | 1 µg/mL (≈ 1.3 µM) | 2 µg/mL (≈ 2.6 µM) | 2 µg/mL (≈ 2.6 µM) | 1 µg/mL (≈ 1.3 µM) | < 0.06 µg/mL | – | – | – | – | – | – | – | – | – | –
Nc1nc(/C(=N/OC2(C(=O)O)CC2)C(=O)N[C@@H]2C(=O)N3C[C@@](C(=O)O)(N4CCN(NC(=O)CCNC(=O)C(=O)c5ccc(O)c(O)c5Cl)C4=O)S[C@H]23)c(Cl)s1 [Example 107, (3R,5R,6R)-6-((Z)-2-(2-amino-5-chlorothia-zol-4-yl)-2-((1-carboxy-cyclopropoxy)imino)-acetamido)-3-(3-(3-(2-(2-chloro-3,4-dihydroxy-phenyl)-2-oxoaceta-mido)proanamido)-2-oxoimidazolidin-1-yl)-7-oxo-4-thia-1-aza-bicyclo[3.2.0]heptane-3-carboxylic acid] | – | – | – | – | – | – | – | – | – | – | 2 µg/mL (≈ 2.37 µM) | 0.25 µg/mL (≈ 0.296 µM) | 0.5 µg/mL (≈ 0.592 µM) | 0.25 µg/mL (≈ 0.296 µM) | 0.25 µg/mL (≈ 0.296 µM) | 0.5 µg/mL (≈ 0.592 µM) | 2 µg/mL (≈ 2.37 µM) | 0.25 µg/mL (≈ 0.296 µM) | <0.06 µg/mL
Nc1nc(/C(=N/OC2(C(=O)O)CC2)C(=O)N[C@@H]2C(=O)N3C[C@@](C(=O)O)(N4CCN(NC(=O)C(=O)c5ccc(O)c(O)c5Cl)C4=O)S[C@H]23)cs1 [Example 21, (3R,5R,6R)-6-((Z)-2-(2-aminothiazol-4-yl)-2-((1-carboxycyclopropoxy)imino)acetamido)-3-(3-(2-(2-chloro-3,4-dihydroxyphenyl)-2-oxoacetamido)-2-oxoimidazolidin-1-yl)-7-oxo-4-thia-1-azabicyclo[3.2.0]heptane-3-carboxylic acid] | < 0.06 µg/mL | 0.12 µg/mL (≈ 0.162 µM) | 1 µg/mL (≈ 1.35 µM) | 0.25 µg/mL (≈ 0.338 µM) | 0.5 µg/mL (≈ 0.676 µM) | 2 µg/mL (≈ 2.71 µM) | 4 µg/mL (≈ 5.41 µM) | 2 µg/mL (≈ 2.71 µM) | < 0.06 µg/mL | – | – | – | – | – | – | – | – | – | –
